Data set [1] in a line: Thermal stability, TG/DTA measurement. As to conditions: for thermal stability higher compared to Z-DOL (Comparative Example 10C) / thermal stability higher compared to Z-TETRAOL (Comparative Example 11C): difference of weight reduction temperatures; for Weight reduction temperature 5% / Weight reduction temperature 10% / Weight reduction temperature 20%: air 200 mL/min, 30° C. to 600° C., heating rate 10° C./min.

The conditions of data set [2]: in acetonitrile; cited from earlier work.
Data set [3] can be described thus: Solubility to solvents (Vertrel XF, n-hexane, ethanol). It is filed as physicochemical. As to conditions: 25° C., visual observation after 1 day; for Solubility Fluorine-based solvent: Vertrel XF, 0.2 parts by mass per 100 parts; for Solubility Ethanol / Solubility n-Hexane: 0.5 parts by mass per 100 parts.
Procedure: To a predetermined mass of Vertrel XF, n-hexane, or ethanol, each of the ionic liquids was added and was irradiated with ultrasonic waves for 5 minutes. Then, the resultant was left to stand for 1 day and solubility thereof was visually observed.
Specifically, to 100 parts by mass of Vertrel XF (25° C.), 0.2 parts by mass of the ionic liquid was added and was irradiated with ultrasonic waves for 5 minutes. Then, the resultant was left to stand for 1 day and solubility thereof was visually observed, followed by evaluation based on the following evaluation criteria. In the cases of n-hexane and ethanol, each of the ionic liquids (0.5 parts by mass) was added to 100 parts by mass of n-hexane or ethanol at 25° C. The resultant was irradiated with ultrasonic waves for 5 minutes. Then, the resultant was left to stand for 1 day and solubility thereof was visually observed, followed by evaluation based on the following evaluation criteria.
<<Vertrel XF>> • 0.2% by mass or more:
When 0.2 parts by mass of the ionic liquid was added, dissolution was found. • Less than 0.2% by mass:
When 0.2 parts by mass of the ionic liquid was added, no dissolution was found.
<<n-Hexane and Ethanol>> • 0.5% by mass or more:
When 0.5 parts by mass of the ionic liquid was added, dissolution was found. • Less than 0.5% by mass:
Data set [4] can be described thus: Solubility to fluorine-based solvent (Vertrel XF), 1.0/0.5/0.1 parts by mass added. To be noted: Vertrel XF [CF3(CHF)2CF2CF3], 25° C., ultrasonic waves 5 minutes, left 1 day, visual observation; 0.5 and 0.1 parts by mass per 100 parts. The procedure:
Then, the resultant was left to stand for 1 day and solubility thereof was visually observed.
Then, the resultant was left to stand for 1 day and solubility thereof was visually observed, followed by evaluation based on the following evaluation criteria.
[Evaluation Criteria] • 0.5% by mass or more:
When 0.5 parts by mass of the ionic liquid was added, dissolution was found. • 0.1% by mass or more but less than 0.5% by mass:
When 0.5 parts by mass of the ionic liquid was added, no dissolution was found. However, when 0.1 parts by mass of the ionic liquid was added, dissolution was found. • Less than 0.1% by mass:
When 0.5 parts by mass of the ionic liquid was added, no dissolution was found. Moreover, when 0.1 parts by mass of the ionic liquid was added, no dissolution was found.

Consider `CCCCCCCCCCCCCCCCCC[N+](C)(C)CCCO.O=S(=O)([N-]S(=O)(=O)C(F)(F)C(F)(F)C(F)(F)C(F)(F)F)C(F)(F)C(F)(F)C(F)(F)C(F)(F)F`, for which, in data set [1], the “thermal stability higher compared to Z-DOL (Comparative Example 10C)” value is ≥ 150 °C and the “thermal stability higher compared to Z-TETRAOL (Comparative Example 11C)” value is ≥ 90 °C.
As to `CCCCCCCCCCCCCC[N+](C)(C)CCCO.O=S(=O)([N-]S(=O)(=O)C(F)(F)C(F)(F)C(F)(F)C(F)(F)F)C(F)(F)C(F)(F)C(F)(F)C(F)(F)F` [Example 9A, bis(nonafluorobutanesulfonyl)imide-N-3′hydroxypropyl-N,N-dimethyltetradecylammonium], in data set [1], the “Weight reduction temperature 5%” value stood at 340.0 °C, the “Weight reduction temperature 10%” value is 359.0 °C and the “Weight reduction temperature 20%” value worked out at 375.0 °C.
Take `O=S(=O)(C(S(=O)(=O)C(F)(F)F)S(=O)(=O)C(F)(F)F)C(F)(F)F` [(CF3SO2)3CH]: in data set [2], the pKa is −3.7.
Take `CCCCCCCCCCCCCCCCCC[n+]1ccn(CCCO)c1.O=S(=O)([N-]S(=O)(=O)C(F)(F)C(F)(F)C(F)(F)C(F)(F)F)C(F)(F)C(F)(F)C(F)(F)C(F)(F)F`: in data set [1], the “thermal stability higher compared to Z-DOL (Comparative Example 10C)” value was ≥ 150 °C and the “thermal stability higher compared to Z-TETRAOL (Comparative Example 11C)” value was ≥ 90 °C.
In the case of “bis(nonafluorobutanesulfonyl)imide-1-dodecyl-2-undecyl-3-3′hydroxypropyloctadecylimidazolium [Example 7A]”, in data set [1], the “Weight reduction temperature 5%” value was 350.9 °C, the “Weight reduction temperature 10%” value amounted to 373.7 °C and the “Weight reduction temperature 20%” value was 394.8 °C.
Regarding `CCCCCCCCCCCCCCCCCCN.O=S(=O)(NS(=O)(=O)C(F)(F)C(F)(F)C(F)(F)C(F)(F)F)C(F)(F)C(F)(F)C(F)(F)C(F)(F)F` [Comparative Example 8A, bis(nonafluorobutanesulfonyl)imide-octadecylammonium, reference compound], in data set [1], the “Weight reduction temperature 5%” value is 311.8 °C, the “Weight reduction temperature 10%” value amounted to 329.8 °C and the “Weight reduction temperature 20%” value came to 348.0 °C. For the same compound, in data set [3], the “Solubility Fluorine-based solvent” value is listed as “Less than 0.2% by mass”, the “Solubility Ethanol” value is recorded as ≥ 0.5% by mass and the “Solubility n-Hexane” value is listed as < 0.5% by mass.
In the case of “pentadecafluorooctanoic acid octadecylammonium [Comparative Example 5A, reference compound]”, in data set [4], the Fluorine-based solvent solubility result was “Less than 0.1% by % by mass”. Also, in data set [1], the “Weight reduction temperature 5%” value was 206.9 °C, the “Weight reduction temperature 10%” value worked out at 215.8 °C and the “Weight reduction temperature 20%” value was 223.4 °C.
Take “heptadecafluorooctanesulfonic acid-6-octadecyl-1,8-diazabicyclo[5.4.0]-7-undecenium”: in data set [1], the “Weight reduction temperature 5%” value is 361.9 °C, the “Weight reduction temperature 10%” value amounted to 382.7 °C and the “Weight reduction temperature 20%” value was 403.5 °C.
With `CCCCCCCCCCCCCCCCCC[N+]1(CCCO)CCCC1.O=S(=O)([N-]S(=O)(=O)C(F)(F)C(F)(F)C(F)(F)C(F)(F)F)C(F)(F)C(F)(F)C(F)(F)C(F)(F)F` [Example 3A, bis(nonafluorobutanesulfonyl)imide-N-3′hydroxypropyl-N-octadecylpyrrolidinium], in data set [1], the “Weight reduction temperature 5%” value turned out to be 349.8 °C, the “Weight reduction temperature 10%” value stood at 370.8 °C and the “Weight reduction temperature 20%” value was 387.6 °C.
Turning to “pentadecafluorooctanoic acid octadecylammonium [pentadecafluorooctanoic acid octadecylammonium]”, in data set [1], the “Weight reduction temperature 5%” value was 206.9 °C, the “Weight reduction temperature 10%” value was found to be 215.8 °C and the “Weight reduction temperature 20%” value stood at 223.4 °C.
Consider perfluorocyclopropane sulfoimide, for which the pKa in data set [2] is listed as −0.8.
With `F[B-](F)(F)F.[H+]` [tetrafluoroboric acid], in data set [2], the pKa is recorded as 1.8.
Turning to “nonafluorobutanesulfonic acid-N,N,N-trimethyloctadecylammonium [Comparative Example 9A, reference compound]”, in data set [1], the “Weight reduction temperature 5%” value came out at 340.5 °C, the “Weight reduction temperature 10%” value was 356.2 °C and the “Weight reduction temperature 20%” value amounted to 371.9 °C.
For `CCCCCCCCCCCCCC[N+](C)(C)CCCO.O=S(=O)([N-]S(=O)(=O)C(F)(F)C(F)(F)C(F)(F)C(F)(F)F)C(F)(F)C(F)(F)C(F)(F)C(F)(F)F`, in data set [1], the “thermal stability higher compared to Z-DOL (Comparative Example 10C)” value is ≥ 145 °C and the “thermal stability higher compared to Z-TETRAOL (Comparative Example 11C)” value is ≥ 90 °C.
`CCCCCCCCCCCCCCCCCCn1ccnc1CCCCCCCCCCCCCCCCC.O=S1(=O)NS(=O)(=O)C(F)(F)C(F)(F)C1(F)F` [Comparative Example 7A, hexafluorocyclopropane-1,3-bis(sulfonyl)imide-1-octadecyl-2-heptadecylimidazolium, reference compound]: in data set [1], the “Weight reduction temperature 5%” value was 303.7 °C, the “Weight reduction temperature 10%” value is 366.4 °C and the “Weight reduction temperature 20%” value amounted to 405.0 °C. In addition, in data set [3], the “Solubility Fluorine-based solvent” value is “Less than 0.2% by mass”, the “Solubility Ethanol” value is ≥ 0.5% by mass and the “Solubility n-Hexane” value is on record as < 0.5% by mass.
As for “nonafluorobutanesulfonic acid-1-octadecyl-2-heptadecylimidazolium”, in data set [1], the “Weight reduction temperature 5%” value was determined as 338.2 °C, the “Weight reduction temperature 10%” value is 365.9 °C and the “Weight reduction temperature 20%” value was 390.1 °C.
Taken in the same sequence, the figures for `CCCCCCCCCCCCCCCCCC[n+]1ccn(CCCO)c1.O=S(=O)([N-]S(=O)(=O)C(F)(F)C(F)(F)C(F)(F)C(F)(F)F)C(F)(F)C(F)(F)C(F)(F)C(F)(F)F` [Example 2A, bis(nonafluorobutanesulfonyl)imide1-3′hydroxypropyl-3-octadecylimidazolium] were 327.7 °C, 361.7 °C and 389.3 °C.
With `CCCCCCCCCCCCCCCCCCC1CCCCN2CCC[N+](CCCO)=C12.O=S(=O)([N-]S(=O)(=O)C(F)(F)C(F)(F)C(F)(F)C(F)(F)F)C(F)(F)C(F)(F)C(F)(F)C(F)(F)F` (stereo not shown) [Example 5A, bis(nonafluorobutanesulfonyl)imide-6-octadecyl-8-3′-hydroxypropyl-1,8-diazabicyclo[5.4 0.0]-7-undecenium], in data set [1], the “Weight reduction temperature 5%” value was 326.2 °C, the “Weight reduction temperature 10%” value is 360.8 °C, the “Weight reduction temperature 20%” value came to 387.7 °C and the “thermal stability higher compared to Z-DOL (Comparative Example 10C)” value was ≥ 160 °C. Moreover, the “thermal stability higher compared to Z-TETRAOL (Comparative Example 11C)” value in data set [1] is ≥ 85 °C.
As to `O=S1(=O)NS(=O)(=O)C(F)(F)C(F)(F)C1(F)F` [hexafluorocyclopropane-1,3-bis(sulfonyl)imide], the pKa in data set [2] is given as −0.8.
Take `CCCCCCCCCCCCCCCCCC[N+](C)(C)CCCO.O=S(=O)([N-]S(=O)(=O)C(F)(F)C(F)(F)C(F)(F)C(F)(F)F)C(F)(F)C(F)(F)C(F)(F)C(F)(F)F` [Example 10A, bis(nonafluorobutanesulfonyl)imide-N-3′hydroxypropyl-N,N-dimethyloctadecylammonium]: in data set [1], the “Weight reduction temperature 5%” value is 336.5 °C, the “Weight reduction temperature 10%” value is 359.4 °C and the “Weight reduction temperature 20%” value is 376.6 °C.
For “nonafluorobutanesulfonic acid-1-octadecylimidazolium”, in data set [1], the “Weight reduction temperature 5%” value was 349.3 °C, the “Weight reduction temperature 10%” value was 375.0 °C and the “Weight reduction temperature 20%” value is 397.5 °C.
With `CCCCCCCCCCCCCCCCCC[N+]1(CCCO)CCCC1.O=S(=O)([N-]S(=O)(=O)C(F)(F)C(F)(F)C(F)(F)C(F)(F)F)C(F)(F)C(F)(F)C(F)(F)C(F)(F)F`, in data set [1], the “thermal stability higher compared to Z-DOL (Comparative Example 10C)” value was ≥ 160 °C and the “thermal stability higher compared to Z-TETRAOL (Comparative Example 11C)” value was ≥ 100 °C.
Consider “heptadecafluorooctanesulfonic acid-6-octadecyl-1,8-diazabicyclo[5.4.0]-7-undecenium [Comparative Example 3A]”, for which the Fluorine-based solvent solubility entry in data set [4] was “Less than 0.1% by % by mass”.
In the case of `CCCCCCCCCCCCCCCCCC[n+]1ccn(CCCO)c1CCCCCCCCCCCCCCCCC.O=S(=O)([N-]S(=O)(=O)C(F)(F)C(F)(F)C(F)(F)C(F)(F)F)C(F)(F)C(F)(F)C(F)(F)C(F)(F)F` [Example 8A, bis(nonafluorobutanesulfonyl)imide-1-3′hydroxypropyl-2-heptadecyl-3-octadecylimidazolium], in data set [1], the “Weight reduction temperature 5%” value came to 327.8 °C, the “Weight reduction temperature 10%” value stood at 364.3 °C and the “Weight reduction temperature 20%” value is 398.8 °C.
Consider `O=S(=O)(NS(=O)(=O)C(F)(F)C(F)(F)C(F)(F)C(F)(F)F)C(F)(F)C(F)(F)C(F)(F)C(F)(F)F` [bis(nonafluorobutanesulfonyl)imide], for which the pKa in data set [2] was 0.0.
On to `CCCCCCCCCCCCCCCCCC[n+]1ccn(CCCO)c1CCCCCCCCCCCCCCCCC.O=S(=O)([N-]S(=O)(=O)C(F)(F)C(F)(F)C(F)(F)C(F)(F)F)C(F)(F)C(F)(F)C(F)(F)C(F)(F)F`, for which, in data set [1], the “thermal stability higher compared to Z-DOL (Comparative Example 10C)” value is ≥ 160 °C and the “thermal stability higher compared to Z-TETRAOL (Comparative Example 11C)” value was ≥ 85 °C.
